Patent US10265692B2, “Ex vivo methods for predicting and confirming in vivo metabolism of pharmaceutically active compounds” (Empiriko Corporation, priority 2013, dated 2019)

Tests used:
[1] = Furosemide oxidation by conventional method with octabromo tetrakis(2,6-dichlorophenyl)porphyrin Fe(III)Cl and hydrogen peroxide, with or without imidazole co-catalyst, metabolites by LC/MS-ESI; type: in vitro ADME; details: DMSO, H2O2, 24 hours; for furosemide metabolites produced, Imidazole Co-Catalyst: with imidazole co-catalyst; for furosemide metabolites produced, No Co-Catalyst: control without imidazole
Protocol: Furosemide API (12.5 mg, 0.0378 mmol) in DMSO (0.1 M) was added to octabromo tetrakis(2,6-dichlorophenyl)porphyrin Fe(III)Cl (0.6 mg, 0.000378 mmol), followed by imidazole (0.13 mg, 0.00189 mmol). Over a 1 hour period, 50% w/w hydrogen peroxide (6.44 uL, […]) was added dropwise. An additional amount of hydrogen peroxide was added after 2 hours. The reaction was monitored by LC and stopped after 24 hours.
A control reaction was run under the exact parameters as stated above, without the addition of imidazole as a co-catalyst.
Samples analyzed according to parameters in Example 1.

[2] = Ex vivo prediction of drug-to-drug interaction: microwave oxidation of drug mixtures with Octabromo tetrakis(2,6-dichlorophenyl)porphyrin Fe(III)Cl and sodium hypochlorite, metabolites by LC/MS; details: saxagliptin reacted in mixture with Metformin, porphyrin Fe(III)Cl catalyst, NaOCl
Protocol: Metformin and Saxagliptin Mixture Microwave Protocol: Metformin Hydrochloride (8.19 mg, 0.06341 mmol) in 1:0.25 mL acetonitrile:water was reacted with potassium carbonate (10.96 mg, 0.07926) and stirred at 40° C. for 30 minutes in a microwave tube. Saxagliptin API (20.0 mg, 0.06341 mmol) extracted using 40 mL 1:1 methanol:ethanol, filtered and concentrated in vacuo. The resulting solid taken up in 2:0.25 mL acetonitrile:water and transferred to microwave tube. Octabromo tetrakis(2,6-dichlorophenyl)porphyrin Fe(III)Cl (10.21 mg, 0.006341 mmol) then added, followed by sodium hypochlorite (156.6 uL, 0.3171 mmol). Reaction run in the microwave at 80° C. for 30 minutes (CC-03-149A).

Row | Compound | furosemide metabolites produced, Imidazole Co-Catalyst [1] | furosemide metabolites produced, No Co-Catalyst [1] | Presence of Saxagliptin metabolites [2]
1 | NS(=O)(=O)c1cc2c(cc1Cl)N1CC(=O)C=CC1OC2=O (stereo not shown) [FUR1] | Present | Present | –
2 | NS(=O)(=O)c1cc(C(=O)[O-])c(-[n+]2cccc(O)c2)cc1Cl [FUR2] | Present | Present | –
3 | NS(=O)(=O)c1cc2c(cc1Cl)[N+]1(O)CC(=O)C(O)C(=O)C1OC2=O (stereo not shown) [FUR4] | Present | – | –
4 | Nc1cc(Cl)c(S(N)(=O)=O)cc1C(=O)O [FUR3] | Present | Present | –

Next, values leading:

Row | furosemide metabolites produced, Imidazole Co-Catalyst [1] | furosemide metabolites produced, No Co-Catalyst [1] | Presence of Saxagliptin metabolites [2] | Compound
5 | Present | – | – | NS(=O)(=O)c1cc2c(cc1Cl)[N+]1([O-])CC(=O)C=CC1OC2=O (stereo not shown) [FUR5]
6 | – | – | Not Detected | N#C[C@@H]1C[C@@H]2C[C@@H]2N1C(=O)C(N)C12CC3CC(O)(CC(O)(C3)C1)C2 (stereo partly shown) [Hydroxy-Saxagliptin]
7 | Present | – | – | NS(=O)(=O)c1cc(C(=O)O)c(NCC(=O)CCC(=O)O)cc1Cl [FUR6]
